Reference: patent publication US10004761B2, “Malodor neutralizing composition” (priority 2016, dated 2018)

Assay: Solubility of NAC crystals in water
Assay type: physicochemical
Procedure: The solubility of NAC crystals in water was measured for different NAC concentrations, at different temperatures.

CC(=O)N[C@@H](CS)C(=O)O [NAC, N-acetyl L-cysteine]
20%: concentration at which NAC solubilization reaches saturation (at room temperature, presumed from crystals in the HA gel tubes)
≥ 20%: NAC concentration completely soluble in water (from 34° C. and up)
More crystals: Clearance (solubility of NAC crystals in water) (NAC concentration 18%, at 4° C. (storage)) | Clearance (solubility of NAC crystals in water) (NAC concentration 20%, at 4° C. (storage)) | Clearance (solubility of NAC crystals in water) (NAC concentration 20%, at 23° C., room temperature)
Clear: Clearance (solubility of NAC crystals in water) (NAC concentration 10%, at 4° C. (storage)) | Clearance (solubility of NAC crystals in water) (NAC concentration 10%, at 23° C., room temperature) | Clearance (solubility of NAC crystals in water) (NAC concentration 10%, at 34-37° C., skin and body temperature) | Clearance (solubility of NAC crystals in water) (NAC concentration 12%, at 4° C. (storage)) | Clearance (solubility of NAC crystals in water) (NAC concentration 12%, at 23° C., room temperature) | Clearance (solubility of NAC crystals in water) (NAC concentration 12%, at 34-37° C., skin and body temperature) | Clearance (solubility of NAC crystals in water) (NAC concentration 14%, at 4° C. (storage)) | Clearance (solubility of NAC crystals in water) (NAC concentration 14%, at 23° C., room temperature) | Clearance (solubility of NAC crystals in water) (NAC concentration 14%, at 34-37° C., skin and body temperature) | Clearance (solubility of NAC crystals in water) (NAC concentration 16%, at 23° C., room temperature) | Clearance (solubility of NAC crystals in water) (NAC concentration 16%, at 34-37° C., skin and body temperature) | Clearance (solubility of NAC crystals in water) (NAC concentration 18%, at 34-37° C., skin and body temperature) | Clearance (solubility of NAC crystals in water) (NAC concentration 20%, at 34-37° C., skin and body temperature)
Minimal: Clearance (solubility of NAC crystals in water) (NAC concentration 18%, at 23° C., room temperature, cell wraps: Minimal crystals appearance)
≤ 15%: NAC concentration completely soluble in water (at 23° C. and at lower temperatures)
Minimal crystals: Clearance (solubility of NAC crystals in water) (NAC concentration 16%, at 4° C. (storage), cell wraps: Minimal crystals appearance)
